The results in this text go back to US20240317801A1, “PEPTIDOMIMETIC MATRIPTASE 2 INHIBITORS AND USES THEREOF” (Disc Medicine, Inc., priority 2020, published 2024).

For orientation: Ki means the equilibrium dissociation constant of an inhibitor or competing ligand from its target.

Some results are limits rather than exact numbers.

For the assay, the target named is T1, Human Recombinant Matriptase 2 (Homo sapiens, UniProt Q8IU80).
T1 construct: purchased Enzo Life Sciences ALX-201-752-1
T1 sequence (Q8IU80 1-811): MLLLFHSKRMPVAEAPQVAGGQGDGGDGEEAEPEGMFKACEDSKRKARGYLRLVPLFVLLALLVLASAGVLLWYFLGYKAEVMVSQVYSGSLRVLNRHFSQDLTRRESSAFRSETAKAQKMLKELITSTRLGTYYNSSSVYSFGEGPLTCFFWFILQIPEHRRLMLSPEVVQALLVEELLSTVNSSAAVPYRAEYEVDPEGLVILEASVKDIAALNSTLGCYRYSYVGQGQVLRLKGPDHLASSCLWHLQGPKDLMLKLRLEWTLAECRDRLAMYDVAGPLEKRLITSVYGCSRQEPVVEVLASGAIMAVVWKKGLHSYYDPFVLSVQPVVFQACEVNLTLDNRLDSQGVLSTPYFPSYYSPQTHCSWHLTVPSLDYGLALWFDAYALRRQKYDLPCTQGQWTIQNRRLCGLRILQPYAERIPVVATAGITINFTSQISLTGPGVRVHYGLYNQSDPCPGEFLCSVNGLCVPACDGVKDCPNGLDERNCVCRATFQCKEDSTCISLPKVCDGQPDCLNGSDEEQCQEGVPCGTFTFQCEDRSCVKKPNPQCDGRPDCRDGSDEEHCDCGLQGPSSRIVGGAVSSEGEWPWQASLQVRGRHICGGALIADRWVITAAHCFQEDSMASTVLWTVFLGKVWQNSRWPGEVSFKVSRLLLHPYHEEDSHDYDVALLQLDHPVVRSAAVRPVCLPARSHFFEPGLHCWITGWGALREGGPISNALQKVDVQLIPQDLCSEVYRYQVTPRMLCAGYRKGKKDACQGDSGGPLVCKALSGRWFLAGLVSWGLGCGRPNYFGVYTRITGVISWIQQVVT
Put plainly: Matriptase 2 fluorescence-based inhibition assay (Boc-Gln-Ala-Arg-AMC substrate). The assay is classed as biochemical. The following applies: Ki derived from measured IC50 using Cheng-Prusoff equation; 30 min preincubation, 100 μM substrate, 25° C., pH 7.5; read-out: Mat-2 Ki. The protocol: Test compounds were evaluated for their potential to inhibit Human Recombinant Matriptase 2 (in-house and commercial protein from Enzo Life Sciences—cat log—ALX-201-752-1) using fluorescence-based assay. The concentration of Recombinant Matriptase 2 and the substrate used in the assay were: 7 nM (commercial) and 15 nM (In-house Matriptase 2) and 100 μM (Boc-Gln-Ala-Arg-7-amido-4-methyl coumarin hydrobromide—Cat log: B4153-Sigma and I-1550 from Bachem) respectively. The assay buffer used comprised 50 mM TRIS pH 7.5, 150 mM NaCl, 0.01% gelatin (G1393 Sigma). The assay was performed by using 384 well black flat bottom plate from Grenier (Cat log: 781076) at 25° C. The enzyme and the test compound were preincubated for 30 mins, and the plate was read at wavelength Ex: 360/Em:480 nm60 mins after substrate addition. The final assay volume of was 20 μl. Stock solution of compounds were initially prepared in DMSO, which were appropriately diluted for screening to determine IC50 determination (final DMSO conc in the assay was 1%). All the measurements were carried out using the Spectramax M5, Molecular devices. The test compounds were screened at 1 and 10 μM concentrations and IC50 was determined for the interested compounds.
Ki is the binding affinity of an inhibitor. Mat-2 Ki as described herein is the binding affinity of an inhibitor such as a compound as described and provided herein to Mat-2. Mat-2 Ki values are derived from the measured IC50. To determine IC50 values, dose-response curves were generated by plotting percentage inhibition as a function of inhibitor concentration and the data was fitted to a sigmoidal non-linear regression equation (variable slope) using Graph Pad Prism software V7. Mat-2 Ki values as described herein were derived from the IC50 using the Cheng-Prusoff equation, which is understood and appreciated by one the skill in the art. The Mat-2 Ki values of tested compounds as described herein are shown in Table A. Accordingly, the compounds can be used to inhibit matriptase 2 and treat diseases and conditions associated with matriptase 2, such as those described herein.

For the compound `CCNC(=O)C(=O)C(Cc1cccc(Cl)c1)NC(=O)[C@@H](NC(=O)[C@H](CCc1ccccc1)NC(=O)CCc1ccccc1)[C@@H](C)O` (stereo partly shown), the Ki is no less than 1 µM. Next, `CC(C)[C@H](NC(=O)[C@H](Cc1cscn1)NC(=O)OCc1ccccc1)C(=O)N[C@@H](CCCNC(=N)N)C(=O)C(=O)NC(C)(C)C`: no more than 0.1 µM; `C[C@H](O)[C@H](NC(=O)[C@H](Cc1cscn1)NC(=O)OCc1ccccc1)C(=O)N[C@@H](CCCNC(=N)N)C(=O)C(=O)NC(C)(C)C`: no more than 0.1 µM; `C[C@H](O)[C@H](NC(=O)[C@H](CCc1ccccc1)NC(=O)CCc1ccccc1)C(=O)N[C@@H](CCCNC(=N)N)C(=O)C(=O)N[C@@H]1C[C@@H]1F`: no more than 0.1 µM. For `CO[C@@H](C)[C@H](NC(=O)C(CCc1ccccc1)NC(=O)OCc1ccccc1)C(=O)NC(CCCNC(=N)N)C(=O)C(=O)NC(C)(C)C` (stereo partly shown), the Ki is no more than 0.1 µM. For `C[C@@H](O)[C@H](NC(=O)[C@H](Cc1cscn1)NC(=O)CCc1ccccc1)C(=O)N[C@@H](CCCNC(=N)N)C(=O)C(=O)NC1CC1`, the Ki was no more than 0.1 µM. Next, `C[C@@H](O)[C@H](NC(=O)[C@H](Cc1ccc(F)cc1)NC(=O)OCc1ccccc1)C(=O)NC(CCCNC(=N)N)C(=O)C(=O)NC(C)(C)C` (stereo partly shown): no more than 0.1 µM; `C[C@@H](O)[C@H](NC(=O)C(CCc1ccccc1)NC(=O)CCc1ccccc1)C(=O)NC(Cc1ccc(N)nc1)C(=O)C(=O)NC1CC1` (stereo partly shown): no less than 1 µM; `C[C@@H](O)[C@H](NC(=O)[C@H](Cc1cscn1)NC(=O)CCc1ccccc1)C(=O)N[C@@H](CCCNC(=N)N)C(=O)C(=O)NC(C)(C)C`: no more than 0.1 µM. Consider `C[C@@H](O)[C@H](NC(=O)[C@H](Cc1cccnc1)NC(=O)OCc1ccccc1)C(=O)NC(CCCNC(=N)N)C(=O)C(=O)NC(C)(C)C` (stereo partly shown), for which the Ki was no more than 0.1 µM. For `C[C@@H](O)[C@H](NC(=O)[C@H](CCc1ccccc1)NC(=O)CCc1ccccc1)C(=O)N[C@@H](CCCNC(=N)N)C(=O)C(N)=O`, the Ki was no more than 0.1 µM.

For `N=C(N)NCCC[C@H](NC(=O)[C@@H]1C[C@@H](O)CN1C(=O)[C@H](CCc1ccccc1)NC(=O)CCc1ccccc1)C(=O)C(=O)NC1CC1` [(2S,4R)—N—((S)-1-(cyclopropylamino)-6-guanidino-1,2-dioxohexan-3-yl)-4-hydroxy-1-((S)-4-phenyl-2-(3-phenylpropanamido)butanoyl)pyrrolidine-2-carboxamide], the Ki is no more than 0.1 µM. Next, `C[C@H](O)[C@H](NC(=O)[C@H](CCc1ccccc1)NC(=O)OCc1ccccc1)C(=O)N[C@@H](CCCNC(=N)N)C(=O)C(=O)NC(C)(C)C`: no more than 0.1 µM; `CNC(=O)C(=O)[C@H](CCCNC(=N)N)NC(=O)[C@@H](NC(=O)[C@H](CCc1ccccc1)NC(=O)OCc1ccccc1)[C@@H](C)O`: no more than 0.1 µM; `C[C@@H](O)[C@H](NC(=O)C(CCc1ccccc1)NC(=O)CCc1ccccc1)C(=O)NC(Cc1cccc(CN)c1)C(=O)C(=O)NC1CC1` (stereo partly shown): 0.1 to 1 µM. Next, `CO[C@H](C)[C@H](NC(=O)[C@H](CCc1ccccc1)NC(=O)CCc1ccccc1)C(=O)N[C@@H](CCCNC(=N)N)C(=O)C(=O)NC1CC1`: no more than 0.1 µM; `C[C@@H](O)[C@H](NC(=O)[C@H](Cc1cscn1)NC(=O)OCc1ccccc1)C(=O)N[C@@H](CCCNC(=N)N)C(=O)C(=O)NC(C)(C)C`: no more than 0.1 µM. For the compound `CC(C)(C)NC(=O)C(=O)[C@H](CCCNC(=N)N)NC(=O)C1C[C@@H](O)CN1C(=O)[C@H](Cc1cscn1)NC(=O)OCc1ccccc1` (stereo partly shown), the Ki was no more than 0.1 µM. For the compound `CC(C)[C@H](NC(=O)[C@H](Cc1cscn1)NC(=O)CCc1ccccc1)C(=O)N[C@@H](CCCNC(=N)N)C(=O)C(=O)NC1CC1`, the Ki was no more than 0.1 µM. `C[C@@H](O)[C@H](NC(=O)C(CCc1ccccc1)NC(=O)OCc1ccccc1)C(=O)NC(CCCS(C)(=N)=O)C(=O)C(=O)NC(C)(C)C` (stereo partly shown): the Ki is no less than 1 µM.

In the case of `C[C@H](O)[C@H](NC(=O)[C@H](CCc1ccccc1)NC(=O)CCc1ccccc1)C(=O)NC(CCCNC(=N)N)C(=O)C(=O)NC1CC1` (stereo partly shown), the inhibition constant (Ki) was no more than 0.1 µM.

For `CNC(=O)C(O)C(CCCNC(=N)N)NC(=O)[C@@H](NC(=O)[C@H](CCc1ccccc1)NC(=O)CCc1ccccc1)[C@@H](C)O` (stereo partly shown), the Ki was no less than 1 µM. With `N=C(N)NCCC[C@H](NC(=O)[C@@H]1C[C@@H](OCc2ccccc2)CN1C(=O)[C@H](CCc1ccccc1)NC(=O)CCc1ccccc1)C(=O)C(=O)NC1CC1` [(2S,4R)-4-(benzyloxy)-N—((S)-1-(cyclopropylamino)-6-guanidino-1,2-dioxohexan-3-yl)-1-((S)-4-phenyl-2-(3-phenylpropanamido)butanoyl)pyrrolidine-2-carboxamide], the Ki is no more than 0.1 µM. For `C[C@@H](O)[C@H](NC(=O)[C@H](CCc1ccccc1)NC(=O)CCc1ccccc1)C(=O)NC(CCc1nc(N)no1)C(=O)C(=O)NC(C)(C)C` (stereo partly shown), the inhibition constant Ki was no less than 1 µM. Next, `CC(C)[C@H](NC(=O)[C@H](Cc1cscn1)NC(=O)CCc1ccccc1)C(=O)N[C@@H](CCCNC(=N)N)C(=O)C(=O)NC(C)(C)C`: no more than 0.1 µM; `C[C@@H](O)[C@H](NC(=O)[C@H](CCc1ccccc1)NC(=O)CCc1ccccc1)C(=O)N[C@@H](CCCNC(=N)N)C(=O)C(=O)NC1CC1` [(S)—N-cyclopropyl-6-guanidino-3-((2S,3R)-3-hydroxy-2-((S)-4-phenyl-2-(3-phenylpropanamido)butanamido)butanamido)-2-oxohexanamide]: no more than 0.1 µM. Take `CCOC(=O)CNC(=O)C(=O)C(CCCNC(=N)N)NC(=O)[C@@H](NC(=O)C(CCc1ccccc1)NC(=O)CCc1ccccc1)[C@@H](C)O` (stereo partly shown): the Ki lay within 0.1 to 1 µM. Consider `CO[C@H](C)[C@H](NC(=O)[C@H](Cc1cscn1)NC(=O)OC(C)C)C(=O)NC(CCCNC(=N)N)C(=O)C(=O)NC(C)(C)C` (stereo partly shown), for which the inhibition constant (Ki) is no more than 0.1 µM. In the case of `C[C@@H](O)[C@H](NC(=O)[C@H](CCc1ccccc1)NC(=O)CCc1ccccc1)C(=O)N[C@@H](CCCNC(=N)N)C(=O)C(=O)NC1(c2cccnc2)CC1`, the Ki was no more than 0.1 µM. As for `CCNC(=O)C(=O)C(CCCNC(=N)N)NC(=O)[C@@H](NC(=O)[C@H](CCc1ccccc1)NC(=O)CCc1ccccc1)[C@@H](C)O` (stereo partly shown), the Ki was no more than 0.1 µM.

In the case of `C[C@@H](O)[C@H](NC(=O)[C@H](CCc1ccccc1)NC(=O)CCc1ccccc1)C(=O)N[C@@H](CCCNC(=N)N)C(=O)C(=O)N(C)C`, the Ki is no less than 1 µM.

In the case of `C[C@@H](O)[C@H](NC(=O)[C@H](CCc1ccccc1)NC(=O)CCc1ccccc1)C(=O)N[C@@H](CCCNC(=N)N)C(=O)C(=O)NC1(C)CC1` [(S)-6-guanidino-3-((2S,3R)-3-hydroxy-2-((S)-4-phenyl-2-(3-phenylpropanamido)butanamido)butanamido)-N-(1-methylcyclopropyl)-2-oxohexanamide], the inhibition constant (Ki) was no more than 0.1 µM. `N=C(N)NCCC[C@H](NC(=O)C1(NC(=O)[C@H](CCc2ccccc2)NC(=O)CCc2ccccc2)CCC1)C(=O)C(=O)NC1CC1`: the inhibitory constant (Ki) was no more than 0.1 µM.

With `CO[C@@H]1CC(C(=O)N[C@@H](CCCNC(=N)N)C(=O)C(=O)NC(C)(C)C)N(C(=O)[C@H](Cc2cscn2)NC(=O)OCc2ccccc2)C1` (stereo partly shown), the Ki was no more than 0.1 µM. As for `CO[C@@H](C)C(NC(=O)[C@H](Cc1cscn1)NC(=O)OCc1ccccc1)C(=O)NC(CCCNC(=N)N)C(=O)C(=O)NC(C)(C)C` (stereo partly shown), the Ki was no more than 0.1 µM.

For the compound `CC(C)(C)NC(=O)C(=O)C(CCCNC(=N)N)NC(=O)C1(NC(=O)[C@H](Cc2cscn2)NC(=O)OCc2ccccc2)CCCC1` (stereo partly shown), the inhibition constant (Ki) is no more than 0.1 µM. Consider `CNC(=O)C(=O)[C@H](CCCNC(=N)N)NC(=O)[C@@H](NC(=O)[C@H](CCc1ccccc1)NC(=O)CCc1ccccc1)[C@@H](C)O`, for which the inhibition constant Ki was no more than 0.1 µM.
